In patent publication US9782395B2, “2,4-thiazolidinedione derivatives in the treatment of central nervous system disorders” (MINORYX THERAPEUTICS S.L., priority 2014, dated 2017):
Read-outs that look alike come from different tables or passages of the source.

Tests used:
[1] = Brain plasma ratio at Cmax after single oral dose of Pioglitazone; format: in vivo, male C57BL/6 mice; details: male, C57BL/6, mouse, single oral Pioglitazone 4.5 mg/kg, parent and metabolites quantified, read-out: percentage brain plasma ratio
Procedure: The brain plasma ratios of Pioglitazone, MIV, MIII and MII following oral dosing of a single administration of Pioglitazone at 4.5 mg/kg in male C57BL/6 mice.
The brain-plasma ratio was calculated based on levels of Pioglitazone, MIV, MIII and MII in plasma and brain quantified at C max (maximal concentration) following oral dosing of a single administration of Pioglitazone at 4.5 mg/kg in male C57BL/6 mice.

[2] = diabetic preclinical models; cited from earlier work
[3] = biological target: T1, Human recombinant monoamine oxidase MAO-B (Homo sapiens, UniProt P27338); assay: MAO-B inhibition, kynuramine fluorescence assay; format: biochemical
T1 construct: purchased Sigma Aldrich M7441
T1 sequence (P27338 1-520): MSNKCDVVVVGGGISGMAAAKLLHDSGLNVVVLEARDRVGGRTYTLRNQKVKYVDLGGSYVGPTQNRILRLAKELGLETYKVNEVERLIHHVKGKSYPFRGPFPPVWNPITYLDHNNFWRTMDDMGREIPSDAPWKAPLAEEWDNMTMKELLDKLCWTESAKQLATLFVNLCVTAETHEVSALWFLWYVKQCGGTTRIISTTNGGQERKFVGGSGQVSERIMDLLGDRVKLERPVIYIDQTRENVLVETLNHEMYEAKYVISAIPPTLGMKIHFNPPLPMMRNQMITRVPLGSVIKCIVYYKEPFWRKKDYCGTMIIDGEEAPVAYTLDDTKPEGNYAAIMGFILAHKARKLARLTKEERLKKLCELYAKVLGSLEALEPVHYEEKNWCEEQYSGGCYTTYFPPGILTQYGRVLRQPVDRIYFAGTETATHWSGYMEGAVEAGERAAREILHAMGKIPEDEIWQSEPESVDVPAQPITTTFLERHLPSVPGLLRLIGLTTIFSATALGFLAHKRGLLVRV
Source text: (§1) Protocol: Human recombinant monoamine oxidase proteins MAO-A and MAO-B were purchased from Sigma Aldrich (Reference M7316 and M7441 respectively). In order to monitor the MAO enzymatic activities and their inhibition rate a fluorescence based assay was used. The substrate for the assay, kynuramine, is non-fluorescent until undergoing oxidative deamination by MAOs resulting in the fluorescent product 4-hydroxyquinoline. Kynuramine is a substrate for both MAO-A and -B (non-specific substrate). Clorgiline and Deprenyl (Sigma Aldrich) were used as controls for specific inhibition of MAO-A and MAO-B respectively.

[4] = test system: X-linked adrenoleukodystrophy fibroblasts; assay: X-ALD patient fibroblasts, cell survival (MTT); format: cell-based, human; details: at 3, M, vs non-treated, 24 hours
Procedure: Human control and X-linked adrenoleukodystrophy fibroblasts were obtained from Coriell (Candem, USA). Cells were grown in Dulbecco's modified Eagle medium containing 10% foetal bovine serum, 100 U/ml penicillin and […], at 37° C. in humidified 95% air/5% CO2, to 80-90% confluence. To perform our experiments, Dulbecco's modified Eagle medium without D-glucose, pyruvate or L-glutamine was used. Cells were cultured in this medium supplemented with 1 g/l of glucose or 1 g/l of galactose and 10% foetal bovine serum for 24 hours incubated with increasing doses of MIV (3, 10 and 30 μM).
The determination of MTT was performed as described by Mosmann J. Immunol. Methods 1983, 65, 55-63 and by Hansen J. Immunol. Methods 1989; 119, 203-210. This method is based on the ability of viable but not dead cells to convert the tetrazolium salt (MTT) to colored formazan.
For the determination of ATP levels, 2×10^4 cells/well were seeded in 96 well cell culture plate in complete medium. After 16-18 h cells, were lysed in 20 μl lysis buffer and 10 μl of lysate was used to measure ATP levels using ATP determination Kit (Molecular Probes, Invitrogen). 1 μl each of the remaining lysate was used for protein measurement.

[5] = Pharmacokinetic profile and brain distribution after single oral and intravenous dose; format: in vivo, male C57 BL/6 mice
Procedure: Protocol: Pharmacokinetic parameters and brain distribution of 5-(4-(2-(5-(1-hydroxyethyl)pyridine-2-yl)ethoxy)benzyl)thiazolidine-2,4-dione (racemate or stereoisomers) following single oral (4.5 mg/kg) and intravenous (1 mg/kg) dose administration to male C57 BL/6 mice were determined. Blood samples and brain samples were collected pre-dosing and different times post dosing for both oral and i.v pharmacokinetics. All samples were processed for analysis by protein precipitation using acetonitrile and analyzed with fit-for-purpose LC/MS/MS method. The lower limit of quantification (LLOQ) in plasma and brain for 5-(4-(2-(5-(1-hydroxyethyl)pyridine-2-yl)ethoxy)benzyl)thiazolidine-2,4-dione (1) is 0.99 ng/mL. Pharmacokinetic parameters were calculated using the non-compartmental analysis tool of Phoenix WinNonlin.

[6] = test system: Rat spinal cord (SC) motor neurons injured by glutamate; assay: Spinal cord motor neurons injured by glutamate, survival by MAP-2 immunostaining; format: cell-based; details: 1 μM, glutamate 10 μM 20 min, 48 hours, p<0.05
Procedure: Protocol: Rat spinal cord (SC) motor neurons were cultured as described by Martinou (Neuron. 1992 April; 8(4):737-44) and Wang (PLoS Genet. 2013; 9(9)). Briefly, pregnant female rats of 14 days gestation were killed by cervical dislocation and foetuses were collected and immediately placed in ice-cold L15 Leibovitz medium. Spinal cord was treated for 20 min at 37° C. with a trypsin-EDTA. The dissociation was stopped by addition of Dulbecco's modified Eagle's medium (DMEM) with glucose (Pan Biotech), containing DNAse I and 10% fetal calf serum (FCS). Cells were mechanically dissociated and they were then centrifuged. The pellet was resuspended in a defined culture medium with 10 ng/ml of brain-derived neurotrophic factor (BDNF). The cells were seeded in 96-well plates precoated with poly-L-lysine and were cultured at 37°. The medium was changed every 2 days.
Briefly, on day 13 of culture, BDNF or test compound was pre-incubated with primary Spinal cord (SC) motor neurons for 1 hour before glutamate exposure. Glutamate was added to a final concentration of 10 μM diluted in control medium in presence of BDNF or test compound for 20 min. […]
For each condition 6 wells were assessed, 30 pictures per well were taken using ImageXpress (Molecular Device) with 20× magnification. […]

[7] = Brain plasma ratio from AUC of plasma and brain profiles after single oral dose of Pioglitazone or MIV; format: in vivo, male C57BL/6 mice; details: male, C57BL/6, mouse, single oral 4.5 mg/kg of the compound itself, read-out: percentage brain-plasma ratio
Procedure: The brain plasma ratios of Pioglitazone and MIV and following oral dosing of a single administration of either Pioglitazone or M-IV both at 4.5 mg/kg in male C57BL/6 mice. […] The brain-plasma ratio was calculated based on the pharmacokinetics curves of plasma and brain concentration-time profiles calculated as area under the curves of Pioglitazone and following oral dosing of a single administration of either Pioglitazone or MIV both at 4.5 mg/kg in male C57BL/6 mice.

[8] = biological target: T2, Human recombinant monoamine oxidase MAO-A (Homo sapiens, UniProt P21397); assay: MAO-A inhibition, kynuramine fluorescence assay; format: biochemical
T2 construct: purchased Sigma Aldrich M7316
T2 sequence (P21397 1-527): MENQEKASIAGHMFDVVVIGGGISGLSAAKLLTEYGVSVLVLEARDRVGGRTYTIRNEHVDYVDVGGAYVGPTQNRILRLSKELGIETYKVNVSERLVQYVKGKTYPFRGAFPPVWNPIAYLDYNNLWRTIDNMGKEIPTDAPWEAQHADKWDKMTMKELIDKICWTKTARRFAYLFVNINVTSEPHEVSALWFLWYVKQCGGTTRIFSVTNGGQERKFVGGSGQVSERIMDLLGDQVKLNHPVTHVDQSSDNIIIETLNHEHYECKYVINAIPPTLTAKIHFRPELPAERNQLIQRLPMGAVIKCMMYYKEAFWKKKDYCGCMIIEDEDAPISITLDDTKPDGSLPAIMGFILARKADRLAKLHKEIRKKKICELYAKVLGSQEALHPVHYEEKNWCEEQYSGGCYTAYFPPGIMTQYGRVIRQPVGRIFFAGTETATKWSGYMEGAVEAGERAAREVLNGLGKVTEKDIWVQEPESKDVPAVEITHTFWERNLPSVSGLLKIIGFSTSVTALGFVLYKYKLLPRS
Source text: as §1

[9] = test system: primary rat cortical neurons injured by glutamate; assay: Primary cortical neurons injured by glutamate, survival by MTT; format: cell-based
Procedure: Protocol: Rat cortical neurons were cultured as described by Singer (J Neurosci. 1999 Apr. 1; 19(7):2455-63) and Callizot (J Neurosci Res. 2013 May; 91(5):706-16).
Foetuses were collected and immediately placed in ice-cold Leibovitz medium. Cortex was treated with a trypsin-EDTA solution and the dissociation was stopped by addition of Dulbecco's modified Eagle's medium (DMEM) with glucose (Pan Biotech), containing DNAse I and 10% fetal calf serum (FCS). Cells were mechanically dissociated and centrifuged. The pellet was resuspended in a defined culture medium with 10 ng/ml of brain-derived neurotrophic factor (BDNF). The cells were seeded in 96-well plates precoated with poly-L-lysine and were cultured at 37°. The medium was changed every 2 days. The cortical neurons were intoxicated with glutamate after 13 days of culture.
Briefly, on day 13 of culture, BDNF and test compound were pre-incubated with primary cortical neurons for 1 hour before glutamate exposure. Glutamate was added to a final concentration of 40 μM diluted in control medium in presence of BDNF or test compound for 20 min.
After 20 min, glutamate was washed out and fresh culture medium with BDNF or test compound was added for additional 48 hours. The survival evaluation was done by a MTT assay performed with CellTiter 96® Aqueous One Solution Cell Proliferation Assay (Promega).

[10] = test system: experimental autoimmune encephalomyelitis (EAE)

For CCc1ccc(C(O)COc2ccc(CC3SC(=O)NC3=O)cc2)nc1 (stereo not shown) [MII], the Kp ([1]; in vivo) is listed as 0.01 and the “pharmacological activity relative to Pioglitazone” value [2] is listed as “less active than Pioglitazone”.

In the case of CC(=O)c1ccc(CCOc2ccc(CC3SC(=O)NC3=O)cc2)nc1 (stereo not shown) [MIII, 5-(4-(2-(5-acetyl-2-pyridyl)ethoxy)benzyl)-2,4-thiazolidinedione], the Kp ([1]; brain and plasma) is given as 0.07 and the “pharmacological activity relative to Pioglitazone” value [2] is given as “less active than Pioglitazone”.

For CC(O)c1ccc(CCOc2ccc(CC3SC(=O)NC3=O)cc2)nc1 (racemic) [compound (1), 5-[4-[2-(5-(1-hydroxyethyl)-2-pyridinyl)ethoxy]benzyl]-2,4-thiazolidinedione], the IC50 [3] was 70.5 nM, the “increase in cell survival” value [4] was 20% and the “brain concentrations observed until” value ([5]; both intravenous and oral profiles) was 8 h. For the same molecule, the Kp ([5]; male, mouse, brain and plasma, C57BL/6 mice, single oral 4.5 mg/kg / i.v. 1 mg/kg, read-out: brain-to-plasma exposure (AUClast) ratio) was 0.12, the bioavailability ([5]; male, mouse, plasma, oral 4.5 mg/kg vs i.v. 1 mg/kg, C57BL/6 mice) was 85% and the clearance ([5]; male, mouse, plasma, single intravenous 1 mg/kg, C57BL/6 mice, read-out: systemic plasma clearance) was 11.8 mL/min/kg. For the same molecule, the half-life ([5]; male, mouse, plasma, single intravenous 1 mg/kg, C57BL/6 mice, read-out: terminal elimination plasma half-life (converted)) was 107 min, the Tmax ([5]; male, mouse, plasma, single oral 4.5 mg/kg, C57BL/6 mice, read-out: Tmax in plasma) was 30 min and the Tmax ([5]; male, mouse, C57BL/6 mice, brain, read-out: Tmax in brain) was 30 min. The “plasma concentrations observed until” value ([5]; single oral 4.5 mg/kg, 1 animal) was 24 h, the “effect on cell survival vs the control with glutamate” value [6] was “protective effect” and the Kp ([1]; brain and plasma) was 0.13. The Kp [7] was 0.12, the “inhibition of MAO A protein” value [8] was “did not inhibit” and the “protective effect on glutamate injury (survival, MTT)” value ([9]; 3 μM, glutamate 40 μM 20 min, 48 hours) was “full protective effect”. For the same molecule, the “development and severity of EAE (clinical scores)” value ([10]; bid from day 5 post immunization for 15 days, three increasing doses) was “reduces the development and severity”, the “body weight loss associated to treatment” value ([10]; mouse, in vivo) was “No body weight loss” and the “hematological toxicity associated to treatment” value ([10]; mouse, in vivo) was “no significant hematological toxicity”.

Molecule CCc1ccc(CCOc2ccc(CC3SC(=O)NC3=O)cc2)nc1 (stereo not shown) [Pioglitazone, reference compound] has a Kp ([1]; brain and plasma) of 0.09 and a Kp [7] of 0.08.

B1: BDNF: brain-derived neurotrophic factor, reference compound (protein, UniProt P23560 19-247, looked up)
Neurotrophic factor BDNF …: APMKEANIRGQGGLAYPGVRTHGTLESVNGPKAGSRGLTSLADTFEHVIEELLDEDQKVRPNEENNKDADLYTSRVMLSSQVPLEPPLLFLLEEYKNYLDAANMSMRVRRHSDPARRGELSVCDSISEWVTAADKKTAVDMSGGTVTVLEKVPVSKGQLKQYFYETKCNPMGYTKEGCRGIDKRHWNSQCRTTQSYVRALTMDSKKRIGWRFIRIDTSCVCTLTIKRGR
With B1 the “protective effect on glutamate injury (survival, MTT)” value ([9]; 50 ng/ml, reference compound) was “full protective effect”.
